Structures are written as SMILES. Bounds are passed on as bounds.

For one experiment, the target named is T1, Aurora kinase A (AURKA) (Homo sapiens, UniProt O14965).
T1 construct: endogenous in cells; host or cells: HeLa LgBit (AURKA-HiBit KI), CRISPR/Cas9 knock-in at the endogenous AURKA locus
T1 sequence (O14965 1-403): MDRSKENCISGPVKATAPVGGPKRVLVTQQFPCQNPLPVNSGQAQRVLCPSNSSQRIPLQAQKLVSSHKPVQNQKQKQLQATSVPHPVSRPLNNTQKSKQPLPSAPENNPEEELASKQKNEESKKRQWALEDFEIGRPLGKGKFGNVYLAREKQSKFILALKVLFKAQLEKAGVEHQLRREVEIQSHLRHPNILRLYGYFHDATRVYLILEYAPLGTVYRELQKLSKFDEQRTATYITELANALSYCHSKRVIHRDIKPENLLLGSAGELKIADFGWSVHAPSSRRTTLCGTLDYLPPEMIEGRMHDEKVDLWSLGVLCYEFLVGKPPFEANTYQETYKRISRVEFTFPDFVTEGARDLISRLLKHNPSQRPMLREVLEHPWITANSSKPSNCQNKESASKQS
Briefly: Luciferase assay for AURKA in HeLa LgBit (AURKA-HiBit KI) cell line. The class given is cell-based. The note with it: HeLa LgBit (AURKA-HiBit KI) cells, measured after 12 hours. In outline:
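Test compounds (10 nM or 100 nM) added to AURKA-HiBit knock-in HeLa LgBit cells that had been pre-loaded with Endurazine for 2 h following an 18 h culture at 3×10^4 cells. Endogenous AURKA-HiBit level followed by luminescence (470-480 nm), measured after 12 h.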

In a further experiment the test system is NCI-H446 cell line. Briefly: Cell viability assay for NCI-H446 cell line. The class given is cell-based. Particulars: Homo sapiens, NCI-H446, 120 h; H446 cells, 5 days culture, EZ-Cytox; read-out: IC50 value (Level). An excerpt:
The NCI-H446 (hereafter H446) cell lines were provided from American Type Culture Collection (ATCC). For cell culture, RPMI medium 1640 (Gibco, Cat. No. 22400-089; Lot. No. 2522717), FBS (Gibco, Cat. No. 16000-044; Lot. No. 2716756P), Penicillin/Streptomycin (PS) (Gibco, Cat. No. 15140-122; Lot. No. 2585636), 75T cell culture flask (SPL, Cat. No. 70075), 96 well cell culture plate (SPL, Cat. No. 30096), PBS pH 7.4 (Gibco, Cat. No. 10010-023; Lot. No. 2561466), TrypLE™ Express (Gibco, Cat. No. 12605-010; Lot. No. 2492811), counting chamber (hematocytometer) (Hirschmann, Cat. No. 8100204) and 0.4% Trypan Blue solution (DYNEBIO, Cat. No. CBT3710; Lot. No. 20231017) were used. Cells were cultured in RPMI 1640 medium supplemented with 10% FBS and 1% PS and incubated at 37° C., 5% CO2 condition in CO2 incubator (ThermoScientific, Cat. No. 4111).
For experiment, the present compounds were fully dissolved in DMSO (Sigma-Aldrich Cat. No. D2438, Lot. No. RNBL7287.
In each well of 96-well cell culture plate, […] cells of H446 cell lines were seeded in 150 μl of total medium volume. After 24 hours of cell seeding, the present compounds were treated.
The present compounds were each diluted 3-folds from the highest concentration of 1000 nM to the lowest concentration of 0.15 nM. The compound was added to each well to make the total volume of […] and the cells were cultured for 5 days in CO2 incubator (Thermo Fisher Science, Cat. No. 4111).
Thereafter, 20 μl of EZ-Cytox (DOGEN, Cat. NO. EZ-3000, Lot. No. DLS2308) was added to each well and the cells were cultured for 4 hours at the same condition in CO2 incubator. After culture, the absorbance of the sample was measured by setting the wavelength of a plate reader (BMG Labtech, CLARIOstar Plus) to […]. The samples were shaked for 2 minutes in the plate reader before measurement.

Take `O=C1CCC(Nc2ccc(N3CCN(CCC4CCN(NC(=O)c5ccc(Nc6ncc(F)c(Nc7ccc(C(=O)Nc8ccccc8Cl)cc7)n6)cc5)CC4)CC3)cc2)C(=O)N1` (stereo not drawn) [Compound 43, N-(2-chlorophenyl)-4-((2-((4-((4-(2-(4-(4-((2,6-dioxopiperidin-3-yl)amino)phenyl)piperazin-1-yl)ethyl)piperidin-1-yl)carbamoyl)phenyl)amino)-5-fluoropyrimidin-4-yl)amino)benzamide]: the “luminescence value (Level)” value on Aurora kinase A (AURKA) (10 nM compound) is reported as “A (A is <0.3)”; on Aurora kinase A (AURKA) (100 nM compound) it was “A (A is <0.2)”. Besides, the IC50 (as a rule, the point on the concentration scale where inhibition reaches its midpoint) in the experiment on NCI-H446 cell line was less than 50 nM.

On to `CN(c1ccc(N2CCC(CN3CCN(C(=O)Cc4ccc(Nc5ncc(F)c(Nc6ccc(C(=O)Nc7ccccc7Cl)cc6)n5)cc4)CC3)CC2)cc1)C1CCC(=O)NC1=O` (stereo not drawn) [Compound 44, N-(2-chlorophenyl)-4-((2-((4-(2-(4-((1-(4-((2,6-dioxopiperidin-3-yl)(methyl)amino)phenyl)piperidin-4-yl)methyl)piperazin-1-yl)-2-oxoethyl)phenyl)amino)-5-fluoropyrimidin-4-yl)amino)benzamide], for which the “luminescence value (Level)” value is on record as “B (B is 0.3 to 0.5)” on Aurora kinase A (AURKA) (10 nM compound) and “A (A is <0.2)” on Aurora kinase A (AURKA) (100 nM compound). In addition, the IC50 with NCI-H446 cell line was 100 to 150 nM.

As for `CN(c1cccc(N2CCC(CN3CCN(C(=O)Cc4ccc(Nc5ncc(F)c(Nc6ccc(C(=O)Nc7ccccc7Cl)cc6)n5)cc4)CC3)CC2)c1)C1CCC(=O)NC1=O` (stereo not drawn) [Compound 45, N-(2-chlorophenyl)-4-((2-((4-(2-(4-((1-(3-((2,6-dioxopiperidin-3-yl)(methyl)amino)phenyl)piperidin-4-yl)methyl)piperazin-1-yl)-2-oxoethyl)phenyl)amino)-5-fluoropyrimidin-4-yl)amino)benzamide], the “luminescence value (Level)” value on Aurora kinase A (AURKA) (10 nM compound) is listed as “C (C is 0.5 to 0.7)”; on Aurora kinase A (AURKA) (100 nM compound), “B (B is 0.2 to 0.4)”. The IC50 in the experiment on NCI-H446 cell line fell in the range of 50 to 100 nM.

For the molecule `O=C1CCC(c2ccc(N3CCN(CCC4CCN(NC(=O)c5ccc(Nc6ncc(F)c(Nc7ccc(C(=O)Nc8ccccc8Cl)cc7)n6)cc5)CC4)CC3)c(F)c2)C(=O)N1` (stereo not drawn) [Compound 48, N-(2-chlorophenyl)-4-((2-((4-((4-(2-(4-(4-(2,6-dioxopiperidin-3-yl)-2-fluorophenyl)piperazin-1-yl)ethyl)piperidin-1-yl)carbamoyl)phenyl)amino)-5-fluoropyrimidin-4-yl)amino)benzamide], the figures for the “luminescence value (Level)” value on Aurora kinase A (AURKA) (10 nM compound) and at Aurora kinase A (AURKA) (100 nM compound) were “A (A is <0.3)” and “A (A is <0.2)”, respectively. Also, in the experiment with NCI-H446 cell line, the IC50 is less than 50 nM.

Take `CN(CC1CCN(c2ccc(C3CCC(=O)NC3=O)cc2)CC1)[C@H]1CC[C@H](NC(=O)c2ccc(Nc3ncc(F)c(Nc4ccc(C(=O)Nc5ccccc5Cl)cc4)n3)cc2)CC1` (stereo partly drawn) [Compound 49, N-(2-chlorophenyl)-4-((2-((4-(((1r,4r)-4-(((1-(4-(2,6-dioxopiperidin-3-yl)phenyl)piperidin-4-yl)methyl)(methyl)amino)cyclohexyl)carbamoyl)phenyl)amino)-5-fluoropyrimidin-4-yl)amino)benzamide]: the “luminescence value (Level)” value on Aurora kinase A (AURKA) (10 nM compound) is “A (A is <0.3)”; on Aurora kinase A (AURKA) (100 nM compound) it was “A (A is <0.2)”. For the same molecule, the IC50 in the experiment on NCI-H446 cell line is less than 50 nM.

On to `O=C1CCC(c2ccc(N3CCC(CN4CCC(NC(=O)c5ccc(Nc6ncc(F)c(Nc7ccc(C(=O)Nc8ccccc8Cl)cc7)n6)cc5)CC4)CC3)cc2)C(=O)N1` (stereo not drawn) [Compound 50, N-(2-chlorophenyl)-4-[[2-[4-[[1-[[1-[4-(2,6-dioxo-3-piperidyl)phenyl]-4-piperidyl]methyl]-4-piperidyl]carbamoyl]anilino]-5-fluoro-pyrimidin-4-yl]amino]benzamide], for which the entries for the “luminescence value (Level)” value at Aurora kinase A (AURKA) (10 nM compound) and at Aurora kinase A (AURKA) (100 nM compound) were “B (B is 0.3 to 0.5)” and “A (A is <0.2)”, respectively. In the experiment on NCI-H446 cell line, the IC50 lay within 50 to 100 nM.

In the case of `O=C1CCC(c2ccc(N3CCN(C(=O)CN4CCC(NC(=O)c5ccc(Nc6ncc(F)c(Nc7ccc(C(=O)Nc8ccccc8Cl)cc7)n6)cc5)CC4)CC3)cc2)C(=O)N1` (stereo not drawn) [Compound 51, N-(2-chlorophenyl)-4-((2-((4-((1-(2-(4-(4-(2,6-dioxopiperidin-3-yl)phenyl)piperazin-1-yl)-2-oxoethyl)piperidin-4-yl)carbamoyl)phenyl)amino)-5-fluoropyrimidin-4-yl)amino)benzamide], the “luminescence value (Level)” value is given as “A (A is <0.3)” at Aurora kinase A (AURKA) (10 nM compound) and “A (A is <0.2)” at Aurora kinase A (AURKA) (100 nM compound). For the same molecule, the half-inhibitory concentration (IC50) with NCI-H446 cell line was less than 50 nM.

For the molecule `O=C1CCC(c2ccc(N3CCN(CCCC4CCN(NC(=O)c5ccc(Nc6ncc(F)c(Nc7ccc(C(=O)Nc8ccccc8Cl)cc7)n6)cc5)CC4)CC3)cc2)C(=O)N1` (stereo not drawn) [Compound 52, N-(2-chlorophenyl)-4-((2-((4-((4-(3-(4-(4-(2,6-dioxopiperidin-3-yl)phenyl)piperazin-1-yl)propyl)piperidin-1-yl)carbamoyl)phenyl)amino)-5-fluoropyrimidin-4-yl)amino)benzamide], the “luminescence value (Level)” value was “A (A is <0.3)” on Aurora kinase A (AURKA) (10 nM compound) and “A (A is <0.2)” on Aurora kinase A (AURKA) (100 nM compound). In the experiment with NCI-H446 cell line, the concentration for half-maximal inhibition (IC50) is less than 50 nM.

For the molecule `O=C1CCC(c2ccc(N3CCN(CCC4CCN(C(=O)Nc5ccc(Nc6ncc(F)c(Nc7ccc(C(=O)Nc8ccccc8Cl)cc7)n6)cc5)CC4)CC3)cc2)C(=O)N1` (stereo not drawn) [Compound 53, N-(4-((4-((4-((2-chlorophenyl)carbamoyl)phenyl)amino)-5-fluoropyrimidin-2-yl)amino)phenyl)-4-(2-(4-(4-(2,6-dioxopiperidin-3-yl)phenyl)piperazin-1-yl)ethyl)piperidine-1-carboxamide], the “luminescence value (Level)” value at Aurora kinase A (AURKA) (10 nM compound) is “B (B is 0.3 to 0.5)”; at Aurora kinase A (AURKA) (100 nM compound), “A (A is <0.2)”. Also, the IC50 with NCI-H446 cell line was less than 50 nM.

As for `O=C1CCC(Nc2ccc(N3CCN(CCC4CCN(NC(=O)c5ccc(Nc6ncc(F)c(Nc7ccc(C(=O)Nc8ccccc8Cl)cc7)n6)cc5)CC4)CC3)c(F)c2)C(=O)N1` (stereo not drawn) [Compound 55, N-(2-chlorophenyl)-4-((2-((4-((4-(2-(4-(4-((2,6-dioxopiperidin-3-yl)amino)-2-fluorophenyl)piperazin-1-yl)ethyl)piperidin-1-yl)carbamoyl)phenyl)amino)-5-fluoropyrimidin-4-yl)amino)benzamide], the figures for the “luminescence value (Level)” value on Aurora kinase A (AURKA) (10 nM compound) and on Aurora kinase A (AURKA) (100 nM compound) were “A (A is <0.3)” and “A (A is <0.2)”, respectively. The IC50 in the experiment with NCI-H446 cell line is less than 50 nM.

As for `O=C1CCC(c2ccc(N3CCN(CCC4CCN(NC(=O)c5ccc(Nc6ncc(F)c(Nc7ccc(C(=O)Nc8ccccc8Cl)cc7)n6)cc5)CC4)CC3)nc2)C(=O)N1` (stereo not drawn) [Compound 56, N-(2-chlorophenyl)-4-[[2-[4-[[4-[2-[4-[5-(2,6-dioxo-3-piperidyl)-2-pyridyl]piperazin-1-yl]ethyl]-1-piperidyl]carbamoyl]anilino]-5-fluoro-pyrimidin-4-yl]amino]benzamide], the “luminescence value (Level)” value is given as “A (A is <0.3)” at Aurora kinase A (AURKA) (10 nM compound) and “A (A is <0.2)” on Aurora kinase A (AURKA) (100 nM compound). Also, in the experiment with NCI-H446 cell line, the IC50 is less than 50 nM.

`O=C1CCC(c2ccc(N3CCN(CCC4CCN(NC(=O)c5ccc(Nc6ncc(F)c(Nc7ccccc7Cl)n6)cc5)CC4)CC3)cc2)C(=O)N1` (stereo not drawn) [Compound 57, 4-((4-((2-chlorophenyl)amino)-5-fluoropyrimidin-2-yl)amino)-N-(4-(2-(4-(4-(2,6-dioxopiperidin-3-yl)phenyl)piperazin-1-yl)ethyl)piperidin-1-yl)benzamide]: the results for the “luminescence value (Level)” value on Aurora kinase A (AURKA) (10 nM compound) and at Aurora kinase A (AURKA) (100 nM compound) were “A (A is <0.3)” and “A (A is <0.2)”, respectively. Moreover, the IC50 in the experiment with NCI-H446 cell line was 100 to 150 nM.

(Values after patent US20260226071A1, “2, 4-DIANILINOPYRIMIDINE-BASED AURORA-A KINASE SELECTIVE DEGRADATION INDUCING COMPOUNDS” (UPPTHERA, INC., priority 2023, published 2026).)
